Measurements as given in US20260062420A1, “NOVEL DPP1 INHIBITORS AND USES THEREOF” (Insmed Incorporated, priority 2022, published 2026).
Like-named read-outs stand apart in the source and are kept apart here.

Tests used:
active mouse DPP1 enzyme = active mouse DPP1 enzyme (Mus musculus (Mouse), UniProt P97821); test: Mouse DPP1 Enzyme IC50 Assay; type: biochemical
Protocol: Test articles were applied to active mouse DPP1 enzyme (R&D Systems; Minneapolis, MN) in Assay Buffer (50 mM MES pH 5.5, 50 mM NaCl, 5 mM DTT) in a total reaction volume of 125 μL. 25 μL of compound in Assay Buffer plus 5% DMSO was first added to 50 μL of active mouse DPP1 enzyme at a concentration of 62.5 pg/μL and allowed to pre-incubate for 10 minutes at 37° C. after which 50 μL of 1000 μM H-Gly-Arg-AMC substrate (Bachem; St. Torrance, CA) was added, giving final substrate concentration of 400 μM and a final DMSO concentration of 1%. Substrate cleavage was measured for 90 minutes at 37° C., with fluorescence at Excitation/Emission 350/450 nm measured every 5 minutes. DPP1 concentration was interpolated based on its activity relative to a standard curve of recombinant active mouse DPP1 enzyme. IC50 values for each compound were calculated via the XLFit (IDBS Version 5.3.1.3) Add-On to Microsoft Excel using the four parameter fit equation y=(A+((B−A)/(1+((C/x)^D)))), which appears as equation number 205 (4 Parameter Logistic Model or Sigmoidal Dose-Response Model) in XLFit. Default constraints were used for each Parameter. IC50 was defined as the compound concentration at which 50% of enzyme activity was inhibited when compared to the no-compound control.

[1] = target: Recombinant human DPP1 enzyme (Homo sapiens (Human), UniProt P53634); test: Human DPP1 Enzyme IC50 Assay; type: biochemical; conditions: human DPP1 enzyme; Table 16; read-out: IC50, nM; Human
Protocol: Recombinant human DPP1 enzyme (R&D Systems; Minneapolis, MN) was first proteolytically processed into its mature form using recombinant human cathepsin L (R&D Systems) in a buffer consisting of 20 mM citric acid pH 4.5, 150 mM NaCl, 1 mM EDTA and 10 mM DTT. Test articles were applied to activated human DPP1 enzyme in Assay Buffer (25 mM MES pH 6.0, 50 mM NaCl, 5 mM DTT) in a total reaction volume of 125 μL. 25 μL of compound in Assay Buffer plus 5% DMSO was first added to 50 μL of activated human DPP1 enzyme at a concentration of 1 ng/μL and allowed to pre-incubate for 10 minutes at 37° C. after which 50 μL of 1000 μM H-Gly-Arg-AMC substrate (Bachem; St. Torrance, CA) was added, giving final substrate concentration of 400 μM and a final DMSO concentration of 1%. Substrate cleavage was measured for 90 minutes at 37° C., with fluorescence at Excitation/Emission 350/450 nm measured every 5 minutes. DPP1 concentration was interpolated based on its activity relative to a standard curve of activated human recombinant DPP1 enzyme. IC50 values for each compound were calculated via the XLFit (IDBS Version 5.3.1.3) Add-On to Microsoft Excel using the four parameter fit equation y={A+[(B−A)]/[1+((C/x)^D)]}, which appears as equation number 205 (4 Parameter Logistic Model or Sigmoidal Dose-Response Model) in XLFit. Default constraints were used for each Parameter.

[2] = mouse DPP1 enzyme, Table 16, read-out: IC50, nM, Mouse

Chain of active mouse DPP1 enzyme (P97821 25-134): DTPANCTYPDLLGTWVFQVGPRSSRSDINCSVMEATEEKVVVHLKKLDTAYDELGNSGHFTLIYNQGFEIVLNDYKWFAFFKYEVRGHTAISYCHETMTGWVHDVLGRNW
Chain of active mouse DPP1 enzyme (P97821 231-393): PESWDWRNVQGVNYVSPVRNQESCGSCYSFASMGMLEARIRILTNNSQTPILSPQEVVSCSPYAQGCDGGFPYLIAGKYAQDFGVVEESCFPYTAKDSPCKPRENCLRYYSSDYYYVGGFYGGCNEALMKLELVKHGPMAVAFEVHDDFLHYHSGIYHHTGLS
Chain of active mouse DPP1 enzyme (P97821 394-462): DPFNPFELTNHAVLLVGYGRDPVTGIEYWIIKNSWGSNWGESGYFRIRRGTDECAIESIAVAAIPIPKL
Chain of Recombinant human DPP1 enzyme (P53634 25-134): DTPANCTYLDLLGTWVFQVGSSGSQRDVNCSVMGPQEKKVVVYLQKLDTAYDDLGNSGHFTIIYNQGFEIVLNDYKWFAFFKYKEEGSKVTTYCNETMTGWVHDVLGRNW
Chain of Recombinant human DPP1 enzyme (P53634 231-394): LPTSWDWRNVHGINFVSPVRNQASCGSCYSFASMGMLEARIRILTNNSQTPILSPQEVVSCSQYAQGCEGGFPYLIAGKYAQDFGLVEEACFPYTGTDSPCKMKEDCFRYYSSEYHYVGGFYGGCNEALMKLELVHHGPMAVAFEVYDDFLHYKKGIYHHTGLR
Chain of Recombinant human DPP1 enzyme (P53634 395-463): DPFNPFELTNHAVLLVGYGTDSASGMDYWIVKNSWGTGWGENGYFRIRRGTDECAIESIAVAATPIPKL

| SMILES | IC50 (active mouse DPP1 enzyme; [2]) | IC50 [1] | IC50 (active mouse DPP1 enzyme; figure legends FIG. 12 and 13, read-out: IC50, in vitro inhibition of mouse DPP1) | IC50 (active mouse DPP1 enzyme; mouse DPP1 enzyme, H-Gly-Arg-AMC substrate 400 μM, Table 13, read-out: IC50) |
| --- | --- | --- | --- | --- |
| N#Cc1ccc(-c2ccc(C[C@@H](C#N)NC(=O)[C@@H]3C[C@H]4C[C@H]4N3)cc2)cc1 | 92.4 nM | 140 nM | – | – |
| N#Cc1ccc(-c2ccc(C[C@@H](C#N)NC(=O)C3C[C@@H]4COC[C@@H]4N3)cc2)cc1 (stereo partly drawn) | – | 2610 nM | – | – |
| Cn1c(=O)oc2ccc(-c3ccc(C[C@@H](C#N)NC(=O)CC4COCCN4)cc3)cc21 (stereo partly drawn) | > 5000 nM | > 5000 nM | – | – |
| Cn1c(=O)oc2ccc(-c3ccc(C[C@@H](C#N)NS(N)(=O)=O)cc3)cc21 | > 5000 nM | > 5000 nM | – | – |
| Cn1c(=O)oc2ccc(-c3ccc(C[C@@H](C#N)NC(=O)C4(N)CCS(=O)(=O)C4)cc3)cc21 (stereo partly drawn) | > 5000 nM | > 5000 nM | – | – |
| Cn1c(=O)oc2ccc(-c3ccc(C[C@@H](C#N)NC(=O)C4CS(=O)(=O)CCN4)cc3)cc21 (stereo partly drawn) | > 5000 nM | > 5000 nM | – | – |
| Cn1c(=O)oc2ccc(-c3ccc(C[C@@H](C#N)NC(=O)C4CC5CCN4CC5)cc3)cc21 (stereo partly drawn) | > 5000 nM | > 5000 nM | – | – |
| Cn1c(=O)oc2ccc(-c3ccc(C[C@@H](C#N)NC(=O)C4CNCCN4)cc3)cc21 (stereo partly drawn) | > 5000 nM | > 5000 nM | – | – |
| Cn1c(=O)oc2ccc(-c3ccc(CC(C#N)NC(=O)[C@H]4CCNC[C@@H]4N)cc3)cc21 (stereo partly drawn) | > 5000 nM | > 5000 nM | – | – |
| Cn1c(=O)oc2ccc(-c3ccc(CC(C#N)NC(=O)[C@H]4CCNC[C@H]4N)cc3)cc21 (stereo partly drawn) | 2430 nM | 1310 nM | – | – |
| Cn1c(=O)oc2ccc(-c3ccc(C[C@@H](C#N)NC(=O)CC4(N)CCOC4)cc3)cc21 (stereo partly drawn) | 3290 nM | 2540 nM | – | – |
| Cn1c(=O)oc2ccc(-c3ccc(C[C@@H](C#N)NC(=O)C4(C)CNCCO4)cc3)cc21 (stereo partly drawn) | 3160 nM | 2180 nM | – | – |
| Cn1c(=O)oc2ccc(-c3ccc(C[C@@H](C#N)NC(=O)CC4CCCN4)cc3)cc21 (stereo partly drawn) | > 5000 nM | > 5000 nM | – | – |
| Cn1c(=O)oc2ccc(-c3ccc(C[C@@H](C#N)NC(=O)C4CCC(N)C4)cc3)cc21 (stereo partly drawn) | > 5000 nM | > 5000 nM | – | – |
| Cn1c(=O)oc2ccc(-c3ccc(C[C@@H](C#N)NC(=O)C4CCNCC4)cc3)cc21 | > 5000 nM | > 5000 nM | – | – |
| Cn1c(=O)oc2ccc(-c3ccc(C[C@@H](C#N)NC(=O)C4(CN)CCC4)cc3)cc21 | 2770 nM | 3660 nM | – | – |
| Cn1c(=O)oc2ccc(-c3ccc(C[C@@H](C#N)NC(=O)C4CNC4)cc3)cc21 | 825 nM | 1270 nM | – | – |
| Cn1c(=O)oc2ccc(-c3ccc(C[C@@H](C#N)NC(=O)C4CNCCS(=O)(=O)C4)cc3)cc21 (stereo partly drawn) | 2760 nM | 4820 nM | – | – |
| Cn1c(=O)oc2ccc(-c3ccc(C[C@@H](C#N)NC(=O)C4=CS(=O)(=O)CCNC4)cc3)cc21 | > 5000 nM | > 5000 nM | – | – |
| C=C1Oc2ccc(-c3ccc(C[C@@H](C#N)NC(=O)CC4(N)CCS(=O)(=O)C4)cc3)cc2N1C (stereo partly drawn) | > 5000 nM | > 5000 nM | – | – |
| Cn1c(=O)oc2ccc(-c3ccc(C[C@@H](C#N)NS(=O)(=O)CCN)cc3)cc21 | > 5000 nM | > 5000 nM | – | – |
| CN1COc2ccc(-c3ccc(C[C@@H](C#N)NS(=O)(=O)CCNC4CCCC4)cc3)cc21 | > 5000 nM | > 5000 nM | – | – |
| Cn1c(=O)oc2ccc(-c3ccc(C[C@@H](C#N)NC(=O)C4CC=CCNC4)cc3)cc21 (stereo partly drawn) | 1900 nM | 1760 nM | – | – |
| C=C1Oc2ccc(-c3ccc(C[C@@H](C#N)NC(=O)C4CNC[C@H](O)CO4)cc3)cc2N1C (stereo partly drawn) | 2 nM | 2.3 nM | – | – |
| Cn1c(=O)oc2ccc(-c3ccc(C[C@@H](C#N)NC(=O)C4CNCC(O)C4)cc3)cc21 (stereo partly drawn) | 2170 nM | 2030 nM | – | – |
| C=C1Oc2ccc(-c3ccc(C[C@@H](C#N)NC(=O)C4CC5NCCCC5N4)cc3)cc2N1C (stereo partly drawn) | > 5000 nM | > 5000 nM | – | – |
| Cn1c(=O)oc2ccc(-c3ccc(C[C@@H](C#N)NC(=O)CC(N)C4CC4)cc3)cc21 (stereo partly drawn) | > 5000 nM | > 5000 nM | – | – |
| Cn1c(=O)oc2ccc(-c3ccc(C[C@@H](C#N)NC(=O)C4CCNC4)cc3)cc21 (stereo partly drawn) | > 5000 nM | > 5000 nM | – | – |

| SMILES | IC50 (active mouse DPP1 enzyme; [2]) | IC50 [1] | IC50 (active mouse DPP1 enzyme; figure legends FIG. 12 and 13, read-out: IC50, in vitro inhibition of mouse DPP1) | IC50 (active mouse DPP1 enzyme; mouse DPP1 enzyme, H-Gly-Arg-AMC substrate 400 μM, Table 13, read-out: IC50) |
| --- | --- | --- | --- | --- |
| Cn1c(=O)oc2ccc(-c3ccc(C[C@@H](C#N)NC(=O)C4C=CCNC4)cc3)cc21 (stereo partly drawn) | > 5000 nM | > 5000 nM | – | – |
| Cn1c(=O)oc2ccc(-c3ccc(C[C@@H](C#N)NC(=O)[C@@H]4C[C@H]5OCC[C@H]5N4)cc3)cc21 | > 5000 nM | > 5000 nM | – | – |
| CO[C@H]1CNC[C@@H](C(=O)N[C@H](C#N)Cc2ccc(-c3ccc4oc(=O)n(C)c4c3)cc2)OC1 | 583 nM | 745 nM | – | – |
| Cn1c(=O)oc2ccc(-c3ccc(C[C@@H](C#N)NC(=O)[C@@H]4CNCCCO4)c(F)c3)cc21 | 8.1 nM | – | – | – |
| Cn1c(=O)oc2ccc(-c3ccc(CC(C#N)NC(=O)C4CNC4)cc3)cc21 (stereo not drawn) | – | 1660 nM | – | – |
| N#Cc1ccc(-c2ccc(C[C@@H](C#N)NC(=O)C3CNC3)cc2)cc1 | 4350 nM | > 5000 nM | – | – |
| [2H]C([2H])([2H])n1c(=O)oc2ccc(-c3ccc(C[C@@H](C#N)NC(=O)C4CNC4)cc3)cc21 | – | 1510 nM | – | – |
| Cn1c(=O)oc2ccc(-c3ccc(C[C@@H](C#N)NC(=O)C4CNC4)s3)cc21 | 4930 nM | > 5000 nM | – | – |
| N#Cc1ccc(-c2ccc(C[C@@H](C#N)NC(=O)C3CNC3)s2)cc1 | > 5000 nM | > 5000 nM | – | – |
| [2H]C([2H])([2H])n1c(=O)oc2ccc(-c3ccc(C[C@@H](C#N)NC(=O)C4CNC4)s3)cc21 | – | 4940 nM | – | – |
| N#Cc1ccc(-c2ccc(C[C@@H](C#N)NC(=O)C3CNC3)c(F)c2)cc1 | 1850 nM | 1560 nM | – | – |
| Cn1c(=O)oc2ccc(-c3ccc(C[C@@H](C#N)NC(=O)[C@@H]4C[C@@H]5COC[C@@H]5N4)s3)cc21 | 247 nM | 589 nM | – | – |
| N#Cc1ccc(-c2ccc(C[C@@H](C#N)NC(=O)[C@@H]3C[C@@H]4COC[C@@H]4N3)s2)cc1 | 366 nM | 2270 nM | – | – |
| [2H]C([2H])([2H])n1c(=O)oc2ccc(-c3ccc(C[C@@H](C#N)NC(=O)[C@@H]4C[C@@H]5COC[C@@H]5N4)s3)cc21 | – | 664 nM | – | – |
| N#Cc1ccc(-c2ccc(C[C@@H](C#N)NC(=O)[C@@H]3C[C@@H]4COC[C@@H]4N3)c(F)c2)cc1 | 107 nM | 526 nM | – | – |
| Cn1c(=O)oc2ccc(-c3ccc(C[C@@H](C#N)NC(=O)C4CCCCC4)cc3)cc21 | > 5000 nM | > 5000 nM | – | – |
| Cn1c(=O)oc2ccc(-c3ccc(C[C@@H](C#N)NC(=O)[C@H]4C[C@@H]5COC[C@@H]5N4)cc3)cc21 | > 5000 nM | > 5000 nM | – | – |
| N#Cc1ccc(-c2ccc(C[C@@H](C#N)NC(=O)[C@H]3C[C@@H]4COC[C@@H]4N3)cc2)cc1 | > 5000 nM | > 5000 nM | – | – |
| C=C1Oc2ccc(-c3ccc(C[C@@H](C#N)NC(=O)CC4(N)CCCS(=O)(=O)C4)cc3)cc2N1C (stereo partly drawn) | – | > 5000 nM | – | – |
| C[C@@H]1NCCC[C@@H]1C(=O)N[C@H](C#N)Cc1ccc(-c2ccc3oc(=O)n(C)c3c2)cc1 | – | 1320 nM | – | – |
| C[C@H]1NCCC[C@H]1C(=O)N[C@H](C#N)Cc1ccc(-c2ccc3oc(=O)n(C)c3c2)cc1 | – | 4480 nM | – | – |
| Cn1c(=O)oc2ccc(-c3ccc(CC(C#N)NC(=O)[C@@]4(C)CNCCO4)cc3)cc21 (stereo partly drawn) | – | 1040 nM | – | – |
| Cn1c(=O)oc2ccc(-c3ccc(C[C@@H](C#N)NC(=O)[C@]4(C)CNCCO4)cc3)cc21 | – | > 5000 nM | – | – |
| Cn1c(=O)oc2ccc(-c3ccc(C[C@@H](C#N)NC(=O)[C@@H]4CNCCCO4)cc3)cc21 [brensocatib, reference compound] | – | – | 24.3 nM | 24.3 nM |
| Cn1c(=O)oc2ccc(-c3ccc(C[C@@H](C#N)NC(=O)[C@@H]4CNCCCO4)cc3)cc21 [drawing 1149] | 27 nM | – | – | – |
| Cn1c(=O)oc2ccc(-c3ccc(C[C@@H](C#N)NC(=O)[C@@H]4C[C@@H]5COC[C@@H]5N4)cc3)cc21 [drawing 1156] | – | 940 nM | – | – |
| Cn1c(=O)oc2ccc(-c3ccc(C[C@@H](C#N)NC(=O)C4CNCC45CCC5)cc3)cc21 (stereo partly drawn) [drawing 1229] | – | 1220 nM | – | – |
